Tests used:
Assay in all cases: biochemical
Design in all cases: species or system HEK293/K-562/placenta mixed human extract; Kinobeads chemoproteomic competition binding, quantified by TMT LC-MS/MS, dose response up to 20 uM
ATM = ATM (Homo sapiens, UniProt Q13315)
BMX = BMX (Homo sapiens, UniProt P51813)
BUB1 = BUB1 (Homo sapiens, UniProt O43683)
CAMK2D = CAMK2D (Homo sapiens, UniProt Q13557)
DDR1 = DDR1 (Homo sapiens, UniProt Q08345)
DDR2 = DDR2 (Homo sapiens, UniProt Q16832)
EPHB2 = EPHB2 (Homo sapiens, UniProt P29323)
MAP2K1 = MAP2K1 (Homo sapiens, UniProt Q02750)
Sequence of MAP2K1 (Q02750 whole entry): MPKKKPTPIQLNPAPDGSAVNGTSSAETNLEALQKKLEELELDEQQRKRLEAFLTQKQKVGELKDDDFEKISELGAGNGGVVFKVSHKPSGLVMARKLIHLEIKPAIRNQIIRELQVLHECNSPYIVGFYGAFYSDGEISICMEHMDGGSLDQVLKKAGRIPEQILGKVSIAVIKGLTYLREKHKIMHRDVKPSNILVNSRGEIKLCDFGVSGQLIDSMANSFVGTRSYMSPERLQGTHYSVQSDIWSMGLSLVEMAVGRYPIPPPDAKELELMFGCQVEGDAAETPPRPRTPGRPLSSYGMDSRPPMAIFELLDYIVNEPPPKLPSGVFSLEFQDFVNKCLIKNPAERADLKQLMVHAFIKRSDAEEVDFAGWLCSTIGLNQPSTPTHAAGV

MAP2K5 = MAP2K5 (Homo sapiens, UniProt Q13163)
MAP3K3 = MAP3K3 (Homo sapiens, UniProt Q99759)
Sequence of MAP3K3 (Q99759 whole entry): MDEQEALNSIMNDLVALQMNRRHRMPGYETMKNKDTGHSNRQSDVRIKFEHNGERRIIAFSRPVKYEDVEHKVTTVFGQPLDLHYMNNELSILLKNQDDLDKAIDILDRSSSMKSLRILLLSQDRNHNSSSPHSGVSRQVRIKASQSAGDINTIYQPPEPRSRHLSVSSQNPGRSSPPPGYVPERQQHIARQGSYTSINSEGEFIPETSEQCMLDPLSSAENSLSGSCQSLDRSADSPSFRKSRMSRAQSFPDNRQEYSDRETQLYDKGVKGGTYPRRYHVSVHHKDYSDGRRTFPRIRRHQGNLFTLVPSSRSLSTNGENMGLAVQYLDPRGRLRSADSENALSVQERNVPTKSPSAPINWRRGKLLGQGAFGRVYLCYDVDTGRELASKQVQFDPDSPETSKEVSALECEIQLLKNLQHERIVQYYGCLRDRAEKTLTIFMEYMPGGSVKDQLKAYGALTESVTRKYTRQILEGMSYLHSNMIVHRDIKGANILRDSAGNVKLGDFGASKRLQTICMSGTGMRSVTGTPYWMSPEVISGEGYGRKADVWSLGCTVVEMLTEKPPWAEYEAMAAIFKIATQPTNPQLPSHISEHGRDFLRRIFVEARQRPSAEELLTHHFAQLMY

MAP4K3 = MAP4K3 (Homo sapiens, UniProt Q8IVH8)
MAPK1 = MAPK1 (Homo sapiens, UniProt P28482)
Sequence of MAPK1 (P28482 whole entry): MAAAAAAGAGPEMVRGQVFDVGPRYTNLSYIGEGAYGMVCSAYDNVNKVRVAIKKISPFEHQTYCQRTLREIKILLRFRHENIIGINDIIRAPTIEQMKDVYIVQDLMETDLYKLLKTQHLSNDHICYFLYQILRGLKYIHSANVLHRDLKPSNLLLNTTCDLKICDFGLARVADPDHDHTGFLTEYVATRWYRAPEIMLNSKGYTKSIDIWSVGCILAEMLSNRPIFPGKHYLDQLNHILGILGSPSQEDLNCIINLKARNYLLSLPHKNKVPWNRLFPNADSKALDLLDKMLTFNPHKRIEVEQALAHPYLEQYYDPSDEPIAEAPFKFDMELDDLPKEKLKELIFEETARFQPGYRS

MELK = MELK (Homo sapiens, UniProt Q14680)
Sequence of MELK (Q14680 whole entry): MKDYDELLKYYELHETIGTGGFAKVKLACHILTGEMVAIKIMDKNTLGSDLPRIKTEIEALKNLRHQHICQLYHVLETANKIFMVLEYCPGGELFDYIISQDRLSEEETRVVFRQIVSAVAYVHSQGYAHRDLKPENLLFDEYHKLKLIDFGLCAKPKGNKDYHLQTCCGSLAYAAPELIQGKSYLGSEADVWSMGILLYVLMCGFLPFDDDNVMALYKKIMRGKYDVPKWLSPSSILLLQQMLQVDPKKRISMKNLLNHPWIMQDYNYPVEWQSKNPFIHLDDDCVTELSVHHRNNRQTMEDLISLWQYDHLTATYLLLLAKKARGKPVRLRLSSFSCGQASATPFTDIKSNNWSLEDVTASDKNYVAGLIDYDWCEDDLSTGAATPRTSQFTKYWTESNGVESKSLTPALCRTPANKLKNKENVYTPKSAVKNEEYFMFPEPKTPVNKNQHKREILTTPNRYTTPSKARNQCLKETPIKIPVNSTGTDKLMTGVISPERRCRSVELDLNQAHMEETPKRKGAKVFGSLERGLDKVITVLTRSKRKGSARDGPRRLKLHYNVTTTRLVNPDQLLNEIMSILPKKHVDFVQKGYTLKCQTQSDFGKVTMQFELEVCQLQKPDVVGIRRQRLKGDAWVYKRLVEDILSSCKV

NEK7 = NEK7 (Homo sapiens, UniProt Q8TDX7)
PIM2 = PIM2 (Homo sapiens, UniProt Q9P1W9)
Sequence of PIM2 (Q9P1W9 whole entry): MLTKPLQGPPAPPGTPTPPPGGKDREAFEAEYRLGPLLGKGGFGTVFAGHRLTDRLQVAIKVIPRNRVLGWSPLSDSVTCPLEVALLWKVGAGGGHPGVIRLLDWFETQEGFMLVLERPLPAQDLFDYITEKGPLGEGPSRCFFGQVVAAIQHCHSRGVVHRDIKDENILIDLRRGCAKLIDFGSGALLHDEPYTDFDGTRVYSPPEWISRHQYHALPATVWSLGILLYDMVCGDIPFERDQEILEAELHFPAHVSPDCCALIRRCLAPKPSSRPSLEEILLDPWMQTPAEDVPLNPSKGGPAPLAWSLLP

PKN2 = PKN2 (Homo sapiens, UniProt Q16513)
PKN3 = PKN3 (Homo sapiens, UniProt Q6P5Z2)
PRKD2 = PRKD2 (Homo sapiens, UniProt Q9BZL6)
Sequence of PRKD2 (Q9BZL6 whole entry): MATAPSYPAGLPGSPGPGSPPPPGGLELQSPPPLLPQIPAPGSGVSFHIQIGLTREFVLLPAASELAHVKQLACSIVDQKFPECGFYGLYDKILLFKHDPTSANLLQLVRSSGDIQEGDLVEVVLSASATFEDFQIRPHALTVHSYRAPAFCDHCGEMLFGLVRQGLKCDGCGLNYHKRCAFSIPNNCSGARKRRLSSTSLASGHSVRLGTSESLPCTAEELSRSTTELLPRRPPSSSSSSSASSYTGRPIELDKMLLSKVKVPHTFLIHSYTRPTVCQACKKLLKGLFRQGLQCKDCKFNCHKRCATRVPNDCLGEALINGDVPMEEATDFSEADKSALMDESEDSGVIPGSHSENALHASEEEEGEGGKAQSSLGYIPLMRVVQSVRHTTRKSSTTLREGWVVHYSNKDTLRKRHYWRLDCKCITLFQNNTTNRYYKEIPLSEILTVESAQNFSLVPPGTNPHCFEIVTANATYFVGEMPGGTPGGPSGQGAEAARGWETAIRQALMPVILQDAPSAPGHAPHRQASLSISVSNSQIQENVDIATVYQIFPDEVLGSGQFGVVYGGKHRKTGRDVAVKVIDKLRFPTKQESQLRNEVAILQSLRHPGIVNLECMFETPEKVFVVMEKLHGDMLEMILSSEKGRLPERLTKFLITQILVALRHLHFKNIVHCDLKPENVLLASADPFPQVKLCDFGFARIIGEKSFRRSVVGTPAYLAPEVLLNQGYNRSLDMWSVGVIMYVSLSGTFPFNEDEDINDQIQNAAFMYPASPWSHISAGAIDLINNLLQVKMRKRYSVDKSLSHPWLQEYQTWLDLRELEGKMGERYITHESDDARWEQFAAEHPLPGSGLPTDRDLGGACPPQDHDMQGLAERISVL

PTK2 = PTK2 (Homo sapiens, UniProt Q05397)
STRADA = STRADA (Homo sapiens, UniProt Q7RTN6)
TESK2 = TESK2 (Homo sapiens, UniProt Q96S53)

Measured: IC50

Sequence of DDR1 (Q08345 whole entry): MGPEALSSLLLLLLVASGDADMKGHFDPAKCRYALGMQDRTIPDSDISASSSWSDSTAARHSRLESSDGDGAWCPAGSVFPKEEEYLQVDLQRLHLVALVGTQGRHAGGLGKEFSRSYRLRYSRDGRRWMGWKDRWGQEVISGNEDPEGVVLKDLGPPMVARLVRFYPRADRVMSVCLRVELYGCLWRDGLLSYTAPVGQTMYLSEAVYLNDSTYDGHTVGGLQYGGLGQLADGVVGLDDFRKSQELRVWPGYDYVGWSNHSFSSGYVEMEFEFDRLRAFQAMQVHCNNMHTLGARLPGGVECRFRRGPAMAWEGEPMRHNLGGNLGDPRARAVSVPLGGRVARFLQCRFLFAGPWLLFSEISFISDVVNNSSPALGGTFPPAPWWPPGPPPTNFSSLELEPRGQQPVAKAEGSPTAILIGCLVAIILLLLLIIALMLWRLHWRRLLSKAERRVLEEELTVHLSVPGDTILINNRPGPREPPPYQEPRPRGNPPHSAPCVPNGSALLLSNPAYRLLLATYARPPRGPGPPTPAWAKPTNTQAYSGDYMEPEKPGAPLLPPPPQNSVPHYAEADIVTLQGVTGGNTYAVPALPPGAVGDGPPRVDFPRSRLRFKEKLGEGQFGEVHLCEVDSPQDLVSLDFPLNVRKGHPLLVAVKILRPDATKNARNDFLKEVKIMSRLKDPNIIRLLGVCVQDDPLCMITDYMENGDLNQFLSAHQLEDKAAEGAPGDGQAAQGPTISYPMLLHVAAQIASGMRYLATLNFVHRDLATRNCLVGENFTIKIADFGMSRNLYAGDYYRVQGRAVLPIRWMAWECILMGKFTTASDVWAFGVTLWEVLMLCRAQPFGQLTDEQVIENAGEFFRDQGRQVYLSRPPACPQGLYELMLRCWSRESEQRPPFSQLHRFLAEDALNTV
Sequence of DDR2 (Q16832 whole entry): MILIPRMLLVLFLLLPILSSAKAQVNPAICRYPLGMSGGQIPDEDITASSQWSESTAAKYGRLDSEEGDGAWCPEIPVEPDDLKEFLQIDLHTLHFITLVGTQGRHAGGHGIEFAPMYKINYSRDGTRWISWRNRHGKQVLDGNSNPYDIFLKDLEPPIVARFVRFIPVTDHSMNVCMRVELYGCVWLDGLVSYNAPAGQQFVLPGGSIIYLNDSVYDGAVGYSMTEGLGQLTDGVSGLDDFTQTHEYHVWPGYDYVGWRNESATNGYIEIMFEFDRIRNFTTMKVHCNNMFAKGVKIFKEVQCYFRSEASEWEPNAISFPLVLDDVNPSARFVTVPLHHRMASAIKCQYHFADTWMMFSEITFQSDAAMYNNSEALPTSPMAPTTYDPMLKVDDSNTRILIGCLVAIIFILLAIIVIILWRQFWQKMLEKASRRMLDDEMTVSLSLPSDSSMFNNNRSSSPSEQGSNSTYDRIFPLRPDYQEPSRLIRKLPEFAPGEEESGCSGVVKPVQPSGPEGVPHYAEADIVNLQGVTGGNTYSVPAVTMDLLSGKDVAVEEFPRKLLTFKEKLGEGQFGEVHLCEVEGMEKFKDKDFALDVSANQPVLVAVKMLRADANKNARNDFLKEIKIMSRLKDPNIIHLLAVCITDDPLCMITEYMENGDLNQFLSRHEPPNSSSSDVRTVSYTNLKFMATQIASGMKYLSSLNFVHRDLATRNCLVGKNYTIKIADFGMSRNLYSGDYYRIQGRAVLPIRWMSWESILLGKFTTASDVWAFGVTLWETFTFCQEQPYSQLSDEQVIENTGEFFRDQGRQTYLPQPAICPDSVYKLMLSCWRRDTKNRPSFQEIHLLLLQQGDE

COc1ccccc1-c1n[nH]c2nc(N[C@H]3CC[C@H](NS(=O)(=O)CCC(F)(F)F)CC3)nc(OC)c12 [compound 31, 3,3,3-Trifluoro-N-(trans-4-((4-methoxy-3-(2-methoxyphenyl)-1H-pyrazolo[3,4-d]pyrimidin-6-yl)amino)cyclohexyl)propane-1-sulfonamide]
≥ 20 µM: all assays above

Reference: publication PMC6407917, “Identification of GSK3186899/DDD853651 as a Preclinical Development Candidate for the Treatment of Visceral Leishmaniasis” (Journal of Medicinal Chemistry, 2018)
